Results taken from patent US9238014B2, “Pharmaceutical composition for treating alcohol dependency” (priority 2009, dated 2016).
Where a name gives a salt, the structure may show the parent alone.

System: male mouse of the C57BL/6J line
Assay: Alcohol/water preference (alcohol consumption) after forced alcoholization in mice
Assay type: in vivo
Design: key to Alcohol/Water preference index (Pref.), Mean / Alcohol/Water preference index (Pref), Mean: Pref = (Alcohol−Water)/(Alcohol+Water); >0 alcohol, <0 water preference
Conditions: for Alcohol/Water preference index (Pref), Mean: Example 2, Table D, n = 9; for effect on alcohol consumption (in words): same model and same doses, administered separately or in combination as stated; for Alcohol/Water preference index (Pref.), Mean: Experiment A, single agent 1 mg/kg injected before session, n = 6; for effect on alcoholic preference (in words): on this model and at the doses used, vs saline control, significant if p≦0.05
Protocol: All the products used for the treatments are dissolved in saline (0.9% NaCl) so that the injection volume is 10 ml/kg of body weight.
The animals are kept in their cage throughout the experiment. They are subjected to forced alcoholization, with 10% alcohol as the only drink, for 15 days. They are then returned to normal conditions with water to drink.
Different groups of mice are constituted depending on the treatments: controls (injected with saline), prazosin 1 mg/kg, cyproheptadine 1 mg/kg, prazosin 1 mg/kg+cyproheptadine 1 mg/kg, prazosin 0.5 mg/kg+cyproheptadine 1 mg/kg,
The tests begin 24 hours after forced alcoholization is stopped. They proceed during the first two hours of darkness (period of activity), during which the animals have access to a feeder with water and a feeder with alcohol. The amounts of water and of alcohol consumed are measured after said two hours.
Several sessions of measuring the consumption of water and of alcohol are carried out. For the first 2 sessions (S1-S2) the animals receive an injection of saline; they receive the treatments (prazosin, cyproheptadine, prazosin+cyproheptadine) or saline (for the control group) in the next sessions (T1, T2, T3). The treatments are carried out 10 minutes before each session.
The Alcohol/Water preference index (Pref.) is calculated as follows: Pref.=(Consumption Alcohol−Water)/(Consumption Alcohol+Water)
0<Pref.≦1: Preference for alcohol
Pref.=0: No preference alcohol vs water
−1≦Pref.<0: Preference for water (i.e. aversion to alcohol)
During the sessions for measuring alcohol consumption, the animals receive the treatments 30 minutes before said measurement.
The results are expressed in mean value and standard error of mean (SEM). The preference indices (Pref) of the treated groups are compared with that of the control group by the bilateral Student t-test for independent groups. The values shown (p vs Con) are the probabilities for the difference between treated group and control group being due to chance. A difference is regarded as statistically significant if p≦0.05.
The cyproheptadine/alfuzosin, cyproheptadine/terazosin and cyproheptadine/tamsulosin combinations were tested in experimental conditions identical to those described in example 1 above and using the same model.

[1] = alpha1 antagonist alone 0.5 mg/kg, treatment session T1
[2] = alpha1 antagonist alone 0.5 mg/kg, treatment session T2
[3] = alpha1 antagonist alone 0.5 mg/kg, treatment session T3

## COc1cc2nc(N(C)CCCNC(=O)C3CCCO3)nc(N)c2cc1OC (centres unmarked) [Alfuzosin, N-[3-[(4-amino-6,7-dimethoxy-quinazolin-2-yl)-methyl-amino]propyl]tetrahydrofuran-2-carboxamide]
[1]
  Alcohol/Water preference index (Pref), Mean: 0.59
[2]
  Alcohol/Water preference index (Pref), Mean: 0.62
[3]
  Alcohol/Water preference index (Pref), Mean: 0.63
  effect on alcohol consumption (in words): do not have an effect

## CN1CCC(=C2c3ccccc3C=Cc3ccccc32)CC1 [Cyproheptadine, 4-(5H-dibenzo[a,d]cyclohepten-5-ylidene)-1-methylpiperidine hydrochloride]
Cyproheptadine alone 1 mg/kg, treatment session T1
  Alcohol/Water preference index (Pref), Mean: 0.91
Cyproheptadine alone 1 mg/kg, treatment session T2
  Alcohol/Water preference index (Pref), Mean: 0.76
Cyproheptadine alone 1 mg/kg, treatment session T3
  Alcohol/Water preference index (Pref), Mean: 0.81
Treatment session T1
  Alcohol/Water preference index (Pref.), Mean: 0.92
Treatment session T2
  Alcohol/Water preference index (Pref.), Mean: 0.82
Treatment session T3
  Alcohol/Water preference index (Pref.), Mean: 0.82
  effect on alcoholic preference (in words): do not have a significant effect
hydrochloride
  effect on alcohol consumption (in words): do not have an effect
Listed as cyproheptadine, hydrochloride
  effect on alcohol consumption (in words): do not have any effect

## COc1cc2nc(N3CCN(C(=O)c4ccco4)CC3)nc(N)c2cc1OC [Prazosin, 2-[4-(2-furoyl)piperazin-1-yl]-6,7-dimethoxyquinazolin-4-amine]
Treatment session T1
  Alcohol/Water preference index (Pref.), Mean: 0.78
Treatment session T2
  Alcohol/Water preference index (Pref.), Mean: 0.57
Treatment session T3
  Alcohol/Water preference index (Pref.), Mean: 0.72
  effect on alcoholic preference (in words): do not have a significant effect
  effect on alcohol consumption (in words): do not have any effect

## CCOc1ccccc1OCCN[C@H](C)Cc1ccc(OC)c(S(N)(=O)=O)c1 [Tamsulosin, (R)-5-(2-(2-(2-ethoxyphenoxy)ethylamino)propyl)-2-methoxybenzenesulfonamide]
[1]
  Alcohol/Water preference index (Pref), Mean: 0.68
[2]
  Alcohol/Water preference index (Pref), Mean: 0.79
[3]
  Alcohol/Water preference index (Pref), Mean: 0.77
  effect on alcohol consumption (in words): do not have an effect

## COc1cc2nc(N3CCN(C(=O)C4CCCO4)CC3)nc(N)c2cc1OC (centres unmarked) [Terazosin, 6,7-dimethoxy-2-[4-(tetrahydrofuran-2-ylcarbonyl)piperazin-1-yl]quinazolin-4-amine]
[1]
  Alcohol/Water preference index (Pref), Mean: 0.64
[2]
  Alcohol/Water preference index (Pref), Mean: 0.75
[3]
  Alcohol/Water preference index (Pref), Mean: 0.72
  effect on alcohol consumption (in words): do not have an effect
